The values below come from a melting point compilation (Tetko et al.; mined from patent text by program, amines drawn as free bases though some values may be those of a salt).

Structures are written as SMILES.

For the compound `O=C(CF)NC[C@H]1CN(c2ccc(N3CCN(c4ccc([N+](=O)[O-])s4)CC3)c(F)c2)C(=O)O1`, the melting point lay within 145 to 150 °C.
As to `NC(=O)CCc1c[nH]c2ccccc12`, the melting point stood at 140 °C.
To `Cc1ccc2c3c(c(Cl)nc2c1)C(=O)c1ccccc1-3` belongs 208 to 211 °C; to `CC(C)(C)OC(=O)NCC(=O)N1CCC(=C2c3ccc(Cl)cc3CCc3cccnc32)CC1`, 209 to 211 °C; to `COc1cccc(OC)c1C(=O)Nc1nnc(-c2ccc(NC(C)=O)cc2)s1`, 211 to 213 °C.
As for `OCCN(c1ccncc1F)n1ccc2ccccc21`, the melting point was in the range of 133 to 135 °C.
Compound `COc1ccc(C=Cc2nc3c(OC)c(C)c(C)c(OC)c3[nH]2)cc1OC` showed a melting point of 116 to 119 °C.
`O=Cc1ccc(OCCN2C(=O)c3ccccc3C2=O)cc1` returned a melting point of 138 °C.
Take `Cc1ccccc1P(=NC(=O)OC1CCOC1)(c1ccccc1)c1ccccc1` (stereo not drawn): the melting point is 118 to 119 °C.
The value for `CCCc1c(OCCCc2ccc(OC)c(OC)c2)ccc(C(=O)O)c1O` was 104 to 110 °C; that for `O=S(=O)(N[C@H](CO)c1ccccc1)c1ccc(Cl)cc1` was 127 to 128 °C.
To `O=C(CCl)N1CCC(Cc2ccc(Cl)cc2)CC1` belongs 70 °C; to `CCCCCc1cc(-c2cc(=O)c3c(O)cc(O)cc3o2)ccc1OC`, 166 to 168 °C.
To `COC(=O)CC/C(C)=C/Cc1c(N=C=O)c2c(c(C)c1OC)COC2=O` belongs 95 to 101 °C; to `CCCCc1nc(C)c(CC(=S)N(C)C)c(=O)n1Cc1ccc(-c2ccccc2-c2nnn[nH]2)cc1`, 96.8 to 102 °C; to `Cc1sc(N2CCN(C(=O)OC(C)(C)C)CC2)nc1/C=C/c1cn(-c2ccccc2)nc1O`, 221 to 223 °C.
For the compound `CCCCCN1C(=O)C(O)(c2cc3c(cc2O)OCO3)c2cnccc21` (stereo not drawn), the melting point is 193 to 195 °C.
`c1ccc(-c2ncc(-c3cnc(-c4ccccn4)[nH]3)cn2)cc1` showed a melting point of 262 °C.
Turning to `CC(C)C1OP(N(CCCCCCN(C2CC(C)(C)NC(C)(C)C2)P2OCC(C)(C)C(C(C)C)O2)C2CC(C)(C)NC(C)(C)C2)OCC1(C)C` (stereo not drawn), the melting point is 95 to 97 °C.
To `CCN(CC)CCOc1cccc2c1c1cc(F)ccc1n2Cc1ccccc1` belongs 68 to 69 °C; to `CN(C)C(=O)Oc1cccc(-c2cc(=O)c3cc(N(C)C)ccc3o2)c1`, 167 to 168 °C.
The value for `O=C(C(=NO)c1ccc(F)cc1)c1ccnc(F)c1` was 166 °C.
To `CCOc1sc(C(=O)N2CCCC2)c2c1C(=O)C(=CO)C(C)(C)C2` belongs 140 to 142 °C.
Regarding `O=C1C(CN2CCN(CCO)CC2)CCN1c1ccc(Cl)cc1` (stereo not drawn), the melting point fell in the range of 130 to 131 °C.
The value for `O=C(O)C(=O)CC(=O)c1cccn1CCc1ccccc1` was 168 to 170 °C; that for `CN1C[C@H](CN2CCC(O)(c3ccc(Cl)cc3)CC2)C=C2c3cccc4[nH]c(Cl)c(c34)C[C@H]21` was greater than 192 °C; that for `CC(C)(C(=O)OCc1ccccc1)N1COC(CO)=C(c2ccccc2)C1=O` was 115 to 116 °C.
The value for `CCOC(=O)c1nc(-c2cccc(C)c2)cn1C` was 176 to 177 °C; that for `CN1C(=O)N(c2c(Cl)cccc2Cl)Cc2cnc(Nc3ccccc3)nc21` was 222 to 224 °C.
For `O=C(O)CCc1oc(=S)[nH]c1-c1ccc(Cl)cc1`, the melting point was 196 to 197 °C.
`C[C@@H](N1CC(=O)N(c2ccc(OC(F)(F)C(F)F)cc2)CC1=O)[C@@]1(c2ccc(F)cc2F)CO1`: the melting point is 168 to 170 °C.
In the case of `CC1(C)CON(Cc2ccc(N3C(=O)C4=C(CCCC4)C3=O)cc2Cl)C1=O`, the melting point fell in the range of 102 to 104 °C.
As to `CCCCCCCCCCc1nnn(CC(=O)O)n1`, the melting point is 83 to 86 °C.
For `CCCCCS(=O)(=O)NC(=O)/C=C/c1cc(C(C)(C)C)nn1Cc1ccc(C(F)(F)F)cc1Cl`, the melting point was in the range of 147 to 148 °C.
To `Cn1cc(C#N)c(Nc2ccccc2[N+](=O)[O-])n1` belongs 172 °C.
The value for `COC(=O)CCC(=O)c1ccc(Cl)c(S(N)(=O)=O)c1` was 113 to 115 °C; that for `COc1ccccc1OCC1SCCN1C(=O)CCl` (stereo not drawn) was 87 to 88 °C; that for `Cc1oc(-c2ccccc2)nc1CCOc1ccc(C[C@H](NC(=O)C=Cc2ccccc2)C(=O)O)cc1` was 207 to 209 °C.
`CSc1c(C(C)C(=O)O)n(Cc2ccc(Cl)cc2)c2ccc(F)cc12` (stereo not drawn) returned a melting point of 136 to 140 °C.
The value for `C=CC(=O)OCc1cn(CCCCCCCCCCCC)nn1` was 50 to 52 °C; that for `CC(C)OCC(O)CN1CCC2(CC1)CSC1=C(O2)c2ccccc2C(=O)C1=O` (stereo not drawn) was 97 to 99 °C; that for `c1cn2c(n1)-c1sccc1-n1cnc(-c3nc(C4CC4)no3)c1C2` was 231 to 233 °C.
The compound `Cc1ccc(O)c(Cn2c(NCCCN3CCOCC3)nc3ccc(CNc4c(C)cc(CCC#N)cc4C)cc32)n1` came in with a melting point of 114 °C.
To `NCCc1c(C(=O)O)[nH]c2ccc(Br)cc12` belongs 248 to 249 °C; to `COC(=O)c1ccc(-c2csc(N3C(=O)OCC3(C)C)n2)cc1`, 176 to 179 °C; to `COC(=O)C1CC(=O)N(Cc2ccccc2)C1` (stereo not drawn), 63 to 65 °C.
The value for `O=S(c1cc(Br)c(-c2ccc(Cl)cc2)[nH]1)C(F)(F)F` (stereo not drawn) was 177 to 179 °C.
To `CN(C(=N)N)c1nccc(Oc2ccc(NC(=O)c3cc(F)cc(N4CCOCC4)c3)c3ccccc23)n1` belongs 155 to 157 °C; to `CC1CCCN(c2cccc3c2C(=N)NC3N)C1` (stereo not drawn), 104 °C; to `Cc1oc2ccc(Br)cc2c(=O)c1-c1ccccc1`, 119 to 121 °C.
Consider `CS(=O)(=O)NC1CCCOc2ccccc21` (stereo not drawn), for which the melting point lay within 105 to 106 °C.
The value for `Cc1cc2c(cc1C(C)SCC(N)=O)OCO2` (stereo not drawn) was 121 to 122 °C; that for `COc1cccc(-c2nc(=O)c3ccccc3s2)n1` was 226 °C; that for `O=[N+]([O-])c1ccc2c(c1)NP(=O)(N(CCCl)CCCl)NC2` (stereo not drawn) was 168 to 170 °C.
The value for `Cn1cccc1-c1cc2nccnc2[nH]1` was 208 to 209 °C; that for `CC(=O)c1cc(CN2CCNC2=O)ccc1O` was 131 to 133 °C.
Compound `O=C1C=C/C(=C/c2ccc(C(F)(F)F)cc2)O1` registered a melting point of 92 to 94 °C.
To `COc1cc(-n2cnc3cc(-c4ccc(Cl)cc4)sc3c2=O)ccc1OCC1(OP(=O)(O)O)CC(F)(F)C1` belongs 219 °C; to `CC(C)n1nc(-c2cnc(N)nc2-c2c(F)cccc2F)ccc1=O`, 244 °C.
In the case of `COc1ccc(CCc2ccncc2NC(=O)NCc2ccccc2)cc1OC1CCCC1`, the melting point lay within 152 to 154 °C.
The value for `CC(=O)NC1CCN(c2cccc(Cl)n2)CC1` was 153 to 155 °C.
`COc1ccc2c(c1)CC(NC(=S)NCCOC(=O)c1ccccc1)CC2` (stereo not drawn) registered a melting point of 103 to 106 °C.
To `CC1(C)CCC(C)(C)c2cc([N+](=O)[O-])ccc21` belongs 46 to 50 °C; to `COc1c(Cl)cc(Cl)cc1-n1c(=O)[nH]c2ccccc21`, 202 to 203 °C.
The value for `CN1CCN(C(=O)CCCCCNC(=O)c2cc(OCc3ccccc3)ccc2OCc2ccccc2)CC1` was 78 to 79 °C.
The value for `CCC(C(=O)c1ccc(Cl)cc1)n1ncn(-c2ccc(N3CCN(C(C)=O)CC3)cc2)c1=O` (stereo not drawn) was 125 °C; that for `O=C(c1c(F)cccc1F)N1CNCN(c2ccc(Cl)cc2)C1=O` was 167 to 168 °C.
For the compound `CCCCCCCCCCS(=O)(=O)NC(=O)c1cnc(C(=O)NCC(=O)OCC)c(OC)c1`, the melting point turned out to be 70 °C.
The value for `COc1ccc(C(=O)O)cc1NC(=O)C(CSC(C)=O)Cc1ccccc1` (stereo not drawn) was 172 to 175 °C; that for `CCOC(=O)C(=O)Nc1nc2ccccc2s1` was 185 to 186 °C; that for `CC(Oc1ccc2nc(NC(=O)CCCN3CCOCC3)sc2c1)c1c(Cl)ccc(F)c1Cl` (stereo not drawn) was 141 to 145 °C.
To `COC(=O)C(C)(C)Cc1c(SC(C)(C)C)c2cc(OCc3ccc4cc(F)c(F)cc4n3)ccc2n1Cc1ccc(Cl)cc1` belongs 171 to 173 °C.
In turn, `CN(C(=S)SC(C[N+](=O)[O-])c1ccccc1)c1ccccc1` (stereo not drawn) registered a melting point of 111 to 116 °C.
To `Cc1c2c(c(C)n1-c1ccccc1)C(C)(C)OC2(C)C` belongs 113 to 116 °C.
Regarding `CC1(C)CCc2c1cc(C=O)c(O)c2Br`, the melting point lay within 77.5 to 78.5 °C.
The value for `CCOC(=O)c1[nH]c2ccc(C(O)(C(F)(F)F)C(F)(F)F)cc2c1-c1ccccc1` was 185 to 193 °C; that for `Cc1cc(OC(F)F)ccc1NC(=O)c1cccc(I)c1C(=O)NC(C)C` was 207 to 209 °C.
To `O=C(Nc1ccc(I)cc1)c1ccccc1-c1ccc(C(F)(F)F)cc1` belongs 147 °C; to `CCN1CCC=C(c2csc(N)n2)C1`, 116 to 120 °C; to `O=C(NCCO)c1cncc(-c2cccc3cc(Cc4cc(F)cc(Cl)c4)sc23)c1`, 126 to 127 °C.
To `CCO[C@H]1Cc2ccccc2[C@H]1Nc1nc(CC)c(-c2ccc(OC)cc2OC)nc1CC` belongs 120 to 121 °C; to `CCC(C)c1cc(C=O)cc(C(C)CC)c1O` (stereo not drawn), 65 to 68 °C.
The compound `COc1ccc(C)cc1NC(=O)Nc1ccc2c(c1)CCN(C(=O)Nc1ccc(OCC(O)CO)cc1Cl)C2` (stereo not drawn) showed a melting point of 119 to 121 °C.
To `O=C1CCC(c2ccccc2)(c2ccccc2)C2CN(C(Cc3ccccc3)=NCc3ccc(F)cc3)CC12` (stereo not drawn) belongs 180 °C; to `N#CC1=C(c2ccc(Cl)cc2)NC(C(F)(F)F)C1` (stereo not drawn), 158 to 160 °C; to `O=C(c1ccc(-c2ccccc2)cc1)c1ccc([N+](=O)[O-])cc1`, 174 to 176 °C.
The value for `O=c1c2cc(F)c(N3CCCC3)cc2n(-c2ccc(F)cc2F)c(=O)n1OCc1ccccc1` was 212 to 214 °C.
For `Cc1cc(OC(F)F)ccc1NC(=O)c1cccc([N+](=O)[O-])c1C(=O)NC(C)C`, the melting point lay within 148 to 149 °C.

As a reminder, the melting point is the temperature of the solid-liquid transition.
